# Source: PMC7071059, “Targeting Receptor Tyrosine Kinase VEGFR-2 in Hepatocellular Cancer: Rational Design, Synthesis and Biological Evaluation of 1,2-Disubstituted Benzimidazoles” (Molecules, 2020)
# Where two headings read alike, the source gives them in different places.
# Legend:
# HepG2 cell line [1] = test: In vitro cytotoxic activity, Sulfo-Rhodamine-B (SRB) assay; assay type: cell-based, human; settings: read-out: IC50 (μM) on HepG2 Cell Line
# VEGFR-2 = VEGFR-2 (Homo sapiens, UniProt P35968); test: Biochemical kinase assay (Kinase-Glo Plus luminescence)
# Sequence of VEGFR-2 (P35968 20-1356): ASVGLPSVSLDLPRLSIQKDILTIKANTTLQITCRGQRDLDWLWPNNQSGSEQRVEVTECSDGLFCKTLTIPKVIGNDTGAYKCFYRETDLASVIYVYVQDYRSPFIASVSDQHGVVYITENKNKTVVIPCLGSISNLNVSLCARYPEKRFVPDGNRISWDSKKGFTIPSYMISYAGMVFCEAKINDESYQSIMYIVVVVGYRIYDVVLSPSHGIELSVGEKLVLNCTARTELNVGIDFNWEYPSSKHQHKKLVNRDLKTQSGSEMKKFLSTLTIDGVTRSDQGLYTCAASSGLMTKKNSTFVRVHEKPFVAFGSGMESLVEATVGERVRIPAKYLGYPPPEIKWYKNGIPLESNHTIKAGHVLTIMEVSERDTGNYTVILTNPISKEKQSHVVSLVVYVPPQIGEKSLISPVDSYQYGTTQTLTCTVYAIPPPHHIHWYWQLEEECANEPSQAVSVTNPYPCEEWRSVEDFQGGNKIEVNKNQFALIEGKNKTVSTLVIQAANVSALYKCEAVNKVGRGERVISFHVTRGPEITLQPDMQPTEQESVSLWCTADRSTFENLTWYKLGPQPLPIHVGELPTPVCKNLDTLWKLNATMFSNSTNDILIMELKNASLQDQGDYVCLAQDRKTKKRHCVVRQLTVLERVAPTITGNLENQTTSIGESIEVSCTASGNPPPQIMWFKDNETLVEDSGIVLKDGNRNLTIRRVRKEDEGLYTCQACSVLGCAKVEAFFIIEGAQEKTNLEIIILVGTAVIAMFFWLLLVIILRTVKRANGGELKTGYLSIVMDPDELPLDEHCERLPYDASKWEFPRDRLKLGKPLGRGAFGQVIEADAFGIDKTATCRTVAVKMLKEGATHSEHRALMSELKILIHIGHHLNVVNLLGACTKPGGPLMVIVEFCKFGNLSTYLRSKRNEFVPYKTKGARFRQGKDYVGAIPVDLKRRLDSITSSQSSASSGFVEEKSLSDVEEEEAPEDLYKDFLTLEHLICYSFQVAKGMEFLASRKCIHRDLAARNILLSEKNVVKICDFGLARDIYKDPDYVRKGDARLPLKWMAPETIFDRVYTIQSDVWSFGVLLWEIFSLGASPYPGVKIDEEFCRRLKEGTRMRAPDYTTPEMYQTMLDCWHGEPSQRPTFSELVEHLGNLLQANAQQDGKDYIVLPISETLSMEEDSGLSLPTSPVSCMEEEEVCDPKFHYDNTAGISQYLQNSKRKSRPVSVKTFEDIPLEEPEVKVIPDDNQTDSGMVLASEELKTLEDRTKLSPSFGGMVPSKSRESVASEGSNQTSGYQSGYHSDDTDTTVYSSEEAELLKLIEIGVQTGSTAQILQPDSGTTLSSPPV
# HepG2 cell line [2] = system: HepG2 cell line; set-up: method as in PMID 28505536; settings: earlier 2-furylbenzimidazole, comparison value; cited from earlier work
# [3] = Homo sapiens, HepG2, 48 h, SRB assay, 48 h, mean of three independent experiments
# [4] = SRB assay, 48 h, mean of three independent experiments
Structure (SMILES),melting point [°C],IC50 (HepG2 cell line [1]; [3]) [µM],other results
"CC(C)c1nc2ccccc2n1CC(=O)c1ccc(C#N)cc1 [Compound 6, 4-(2-(2-Isopropyl-1H-benzo[d]imidazol-1-yl)acetyl)benzonitrile]",209 to 211,13.5,–
"CC(C)c1nc2ccccc2n1CC(=O)NN [Compound 10a, 2-(2-Isopropyl-1H-benzo[d]imidazol-1-yl)acetohydrazide]",243 to 245,301,–
"COC(=O)Cn1c(-c2ccc(C)o2)nc2ccccc21 [Compound 8b, Methyl 2-(2-(5-methylfuran-2-yl)-1H-benzo[d]imidazol-1-yl)acetate]",–,> 150,–
"CC(C)c1nc2ccccc2n1CC(=O)N/N=C/c1ccc(O)cc1 [Compound 13c, (E)-N′-(4-Hydroxybenzylidene)-2-(2-isopropyl-1H-benzo[d]imidazol-1-yl)acetohydrazide]",296 to 298,140,–
"CC(C)c1nc2ccccc2n1CC(=O)N/N=C/c1ccccc1Cl [Compound 13a, (E)-N′-(2-Chlorobenzylidene)-2-(2-isopropyl-1H-benzo[d]imidazol-1-yl)acetohydrazide]",211 to 213,158,–
"CC(C)c1nc2ccccc2[nH]1 [Compound 4a, 2-Isopropyl-1H-benzo[d]imidazole]",233 to 235,> 200,–
"COC(=O)Cn1c(C(C)C)nc2ccccc21 [Compound 8a, Methyl 2-(2-isopropyl-1H-benzo[d]imidazol-1-yl)acetate]",93 to 95,> 200,–
"CC(C)c1nc2ccccc2n1CC(=O)O [Compound 9a, 2-(2-Isopropyl-1H-benzo[d]imidazol-1-yl)acetic acid]",238 to 240,32.5,–
"COc1ccc(/C=N/NC(=O)Cn2c(C(C)C)nc3ccccc32)cc1 [Compound 13d, (E)-2-(2-Isopropyl-1H-benzo[d]imidazol-1-yl)-N′-(4-methoxybenzylidene)acetohydrazide]",190 to 192,11.9,IC50 (VEGFR-2): 0.09 ± 0.002 µM
"Cc1ccc(S(=O)(=O)NC(=O)NNC(=O)Cn2c(C(C)C)nc3ccccc32)cc1 [Compound 24a, 2-(2-(2-Isopropyl-1H-benzo[d]imidazol-1-yl)acetyl)-N-tosylhydrazine-1-carboxamide]",–,80.7,–
"Cc1ccc(/C=N/NC(=O)Cn2c(C(C)C)nc3ccccc32)o1 [Compound 13h, (E)-2-(2-Isopropyl-1H-benzo[d]imidazol-1-yl)-N′-((5-methylfuran-2-yl)methylene)acetohydrazide]",–,59.9,–
"CC(C)c1nc2ccccc2n1CC(=O)N/N=C/c1cccc(O)c1 [Compound 13b, (E)-N′-(3-Hydroxybenzylidene)-2-(2-isopropyl-1H-benzo[d]imidazol-1-yl)acetohydrazide]",249 to 251,137,–
COc1ccc(OC)c(/C=N/NC(=O)Cn2c(C(C)C)nc3ccccc32)c1 [Compound 13f],202 to 204,11.9 to 15.6,IC50 (HepG2 cell line [1]; [4]): 16.7 µM; IC50 (VEGFR-2): 0.4 ± 0.01 µM
"CCOC(=O)Cn1c(C(C)C)nc2ccccc21 [Compound 8c, Ethyl 2-(2-isopropyl-1H-benzo[d]imidazol-1-yl)acetate]",103 to 105,> 200,–
"CNC(=O)c1cc(Oc2ccc(NC(=O)Nc3ccc(Cl)c(C(F)(F)F)c3)cc2)ccn1 [Sorafenib (I), sorafenib, reference compound]",–,–,"IC50 (HepG2 cell line [1]; Homo sapiens, HepG2, 48 h): 11 µM"
CCOC(=O)Cn1c(-c2ccc(C)o2)nc2ccccc21 [Compound 8d],–,> 150,–
"CC(C)c1nc2ccccc2n1CC(=O)N/N=C/c1ccc(N(C)C)cc1 [Compound 13e, (E)-N′-(4-(Dimethylamino)benzylidene)-2-(2-isopropyl-1H-benzo[d]imidazol-1-yl)acetohydrazide]",225 to 227,87,–
Cc1ccc(-c2nc3ccccc3n2CC(=O)N/N=C/c2ccccc2Cl)o1 [IX],–,–,IC50 (HepG2 cell line [2]): 22.6 µM
"Cc1ccc(-c2nc3ccccc3[nH]2)o1 [Compound 4b, 2-(5-Methylfuran-2-yl)-1H-benzo[d]imidazole]",–,103,–

# Now from value to molecule, other results behind:
melting point [°C],Structure (SMILES),IC50 (HepG2 cell line [1]; [3]) [µM],other results
203 to 205,"COc1cc(C=O)ccc1OCCOc1ccc(/C=N/NC(=O)Cn2c(-c3ccc(C)o3)nc3ccccc32)cc1OC [Compound 22b, (E)-N′-(4-(2-(4-Formyl-2-methoxyphenoxy)ethoxy)-3-methoxybenzylidene)-2-(2-(5-methylfuran-2-yl)-1H-benzo[d]imidazol-1-yl)acetohydrazide]",> 100,IC50 (HepG2 cell line [1]; [4]): 107 µM
175 to 177,"COC(=O)COc1ccc(/C=N/NC(=O)Cn2c(C(C)C)nc3ccccc32)cc1OC [Compound 19a, Methyl-(E)-2-(4-((2-(2-(2-isopropyl-1H-benzo[d]imidazol-1-yl)acetyl)hydrazono)methyl)-2-methoxyphenoxy)acetate]",109,–
150 to 152,"COC(=O)COc1ccc(/C=N/NC(=O)Cn2c(-c3ccc(C)o3)nc3ccccc32)cc1OC [Compound 19b, Methyl-(E)-2-(2-methoxy-4-((2-(2-(2-(5-methylfuran-2-yl)-1H-benzo[d]imidazol-1-yl)acetyl)hydrazono)methyl)phenoxy)acetate]",71.7,–
165 to 167,"COc1cc(/C=N/NC(=O)Cn2c(C(C)C)nc3ccccc32)ccc1O [Compound 13g, (E)-N′-(4-Hydroxy-3-methoxybenzylidene)-2-(2-isopropyl-1H-benzo[d]imidazol-1-yl)acetohydrazide]",13.9,–
136 to 138,"CCOC(=O)COc1ccc(/C=N/NC(=O)Cn2c(-c3ccc(C)o3)nc3ccccc32)cc1OC [Compound 19d, Ethyl-(E)-2-(2-methoxy-4-((2-(2-(2-(5-methylfuran-2-yl)-1H-benzo[d]imidazol-1-yl)acetyl)hydrazono)methyl)phenoxy)acetate]",114,–
189 to 191,"COc1ccc(NC(=S)NNC(=O)Cn2c(-c3ccc(C)o3)nc3ccccc32)cc1 [Compound 24c, N-(4-Methoxyphenyl)-2-(2-(2-(5-methylfuran-2-yl)-1H-benzo[d]imidazol-1-yl)acetyl)hydrazine-1-carbothioamide]",8.73,–
215 to 217,"C/C(=N\NC(=O)Cn1c(C(C)C)nc2ccccc21)c1ccc(Br)cc1 [Compound 14c, (E)-N′-(1-(4-Bromophenyl)ethylidene)-2-(2-isopropyl-1H-benzo[d]imidazol-1-yl)acetohydrazide]",112,–
93 to 95,"CCOC(=O)COc1ccc(/C=N/NC(=O)Cn2c(C(C)C)nc3ccccc32)cc1OC [Compound 19c, Ethyl-(E)-2-(4-((2-(2-(2-isopropyl-1H-benzo[d]imidazol-1-yl)acetyl)hydrazono)methyl)-2-methoxyphenoxy)acetate]",133,–
238 to 240,"C/C(=N\NC(=O)Cn1c(C(C)C)nc2ccccc21)c1ccccc1C [Compound 14b, (E)-2-(2-Isopropyl-1H-benzo[d]imidazol-1-yl)-N′-(1-(o-tolyl)ethylidene)acetohydrazide]",26.2,–
218 to 220,"COc1cc(C=O)ccc1OCCOc1ccc(/C=N/NC(=O)Cn2c(C(C)C)nc3ccccc32)cc1OC [Compound 22a, (E)-N′-(4-(2-(4-Formyl-2-methoxyphenoxy)ethoxy)-3-methoxybenzylidene)-2-(2-isopropyl-1H-benzo[d]imidazol-1-yl)acetohydrazide]",> 100,IC50 (HepG2 cell line [1]; [4]): 123 µM
231 to 233,"C/C(=N\NC(=O)Cn1c(C(C)C)nc2ccccc21)c1ccc(Br)c([N+](=O)[O-])c1 [Compound 14d, (E)-N′-(1-(4-Bromo-3-nitrophenyl)ethylidene)-2-(2-isopropyl-1H-benzo[d]imidazol-1-yl)acetohydrazide]",62,–
232 to 234,"COc1ccc(NC(=S)NNC(=O)Cn2c(C(C)C)nc3ccccc32)cc1 [Compound 24b, 2-(2-(2-Isopropyl-1H-benzo[d]imidazol-1-yl)acetyl)-N-(4-methoxyphenyl)hydrazine-1-carbothioamide]",15.9,–
